What is called IC50 is the concentration needed to halve the response being measured.

One assay addresses T1, rMAO-A (Rattus norvegicus, UniProt P21396).
T1 construct: using a suspension of crude rat brain mitochondria as enzyme source; from tissue; host or cells: rat brain (crude mitochondrial suspension)
T1 sequence (P21396 1-526): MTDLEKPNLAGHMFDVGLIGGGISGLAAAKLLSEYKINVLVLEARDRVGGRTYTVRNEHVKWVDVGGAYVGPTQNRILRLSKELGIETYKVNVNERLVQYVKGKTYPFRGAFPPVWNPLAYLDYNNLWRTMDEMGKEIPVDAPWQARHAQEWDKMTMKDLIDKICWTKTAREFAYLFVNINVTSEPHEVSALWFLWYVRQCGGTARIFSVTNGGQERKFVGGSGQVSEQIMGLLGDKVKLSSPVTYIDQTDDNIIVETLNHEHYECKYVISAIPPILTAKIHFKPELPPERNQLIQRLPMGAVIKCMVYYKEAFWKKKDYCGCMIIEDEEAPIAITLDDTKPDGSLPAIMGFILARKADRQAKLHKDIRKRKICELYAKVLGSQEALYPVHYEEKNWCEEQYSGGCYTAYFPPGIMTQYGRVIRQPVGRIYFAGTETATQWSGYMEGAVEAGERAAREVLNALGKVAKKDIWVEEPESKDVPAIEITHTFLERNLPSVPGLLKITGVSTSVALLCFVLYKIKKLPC
Kind of assay: Inhibition of rMAO-A in crude rat brain mitochondria (5-HT substrate, HPLC-ED). Type of assay: biochemical. As to conditions: substrate 5-HT. Here is the method:
(§1) Fourteen derivatives differing in the substitution pattern of the cinnamyl benzene ring were studied, these compounds were tested on rat MAO-A and B to determine their inhibitory activity MAO. A general screening was carried out at 10 µM finding moderate activity for some of the compounds against rMAO-B but none against rMAO-A. Thus, five molecules were identified as possibly selective IMAO-B.
(§2) The effect of coumarin derivatives on MAO-A and MAO-B were measured using a suspension of crude rat brain mitochondria as enzyme source. 4-Dimethylaminophenethylamine (4-DMAPEA, 2.5 µM) and 5-hydroxytryptamine (5-HT, […]) were used as substrates selective of MAO-B or MAO-A, respectively. Evaluation of the test compounds on rMAO activity was executed by measuring their effects on the production of 4-dimethylaminophenylacetic acid (DMAPAA) by rMAO-B and 5-hydroxyindoleacetic acid (5-HIAA) by rMAO-A with O2 using HPLC-ED (L-7110 LaChrom and amperometric detector L-3500 LaChrom Recipe, Hitachi, (Tokyo, Japan) (for more detail see methodological references). The IC50 values (average ± SD was measured in two independent experiments each in triplicate) were assessed representing percentage of inhibition in function of the negative logarithm of different inhibitor concentrations (10^−4 to 10^−8) using the GraphPad Prism software.

In the next assay the target is T2, rMAO-B (Rattus norvegicus, UniProt P19643).
T2 construct: using a suspension of crude rat brain mitochondria as enzyme source; from tissue; host or cells: rat brain (crude mitochondrial suspension)
T2 sequence (P19643 1-520): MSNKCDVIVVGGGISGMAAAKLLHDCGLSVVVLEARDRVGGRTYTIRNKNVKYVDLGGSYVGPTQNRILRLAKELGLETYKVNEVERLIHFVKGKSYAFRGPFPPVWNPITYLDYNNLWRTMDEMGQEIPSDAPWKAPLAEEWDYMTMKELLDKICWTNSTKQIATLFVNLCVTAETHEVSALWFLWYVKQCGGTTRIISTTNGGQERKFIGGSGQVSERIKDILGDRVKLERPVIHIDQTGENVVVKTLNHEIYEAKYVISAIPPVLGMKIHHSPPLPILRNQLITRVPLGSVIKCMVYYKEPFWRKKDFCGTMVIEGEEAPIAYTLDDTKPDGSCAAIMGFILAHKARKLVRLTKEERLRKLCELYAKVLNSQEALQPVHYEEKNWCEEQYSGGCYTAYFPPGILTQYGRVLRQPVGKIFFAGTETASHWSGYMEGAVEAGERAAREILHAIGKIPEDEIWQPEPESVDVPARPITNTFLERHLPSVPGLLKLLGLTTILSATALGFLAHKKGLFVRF
Kind of assay: Inhibition of rMAO-B in crude rat brain mitochondria (4-DMAPEA substrate, HPLC-ED). Type of assay: biochemical. The following applies: for IC50: crude rat brain mitochondria, substrate 4-DMAPEA 2.5 µM. Here is the method: as §1, §2

Entries after “also recorded” stand apart in the source; their conditions may differ. Some results are limits rather than exact numbers.

Take `COc1ccc2cc(C(=O)/C=C/c3cccc(O)c3)c(=O)oc2c1` [ChC4, (E)-3-(3-(3-hydroxyphenyl)acryloyl)-7-methoxy-2H-chromen-2-one]: the results for the half-inhibitory concentration (IC50) at rMAO-A and at rMAO-B were greater than 10 µM and 0.76 ± 0.08 µM, respectively.
`COc1ccc2cc(C(=O)/C=C/c3ccc(Br)cc3)c(=O)oc2c1` [ChC14, (E)-3-(3-(4-bromophenyl)acryloyl)-7-methoxy-2H-chromen-2-one]: the 50% inhibitory concentration (IC50) on rMAO-A and at rMAO-B was greater than 10 µM in each case.
Take `COc1ccc2cc(C(=O)/C=C/c3ccc4c(c3)OCO4)c(=O)oc2c1` [ChC9, (E)-3-(3-(benzo[d][1,3]dioxol-5-yl)acryloyl)-7-methoxy-2H-chromen-2-one]: the 50% inhibitory concentration (IC50) at rMAO-A is greater than 10 µM; on rMAO-B, 3.71 ± 0.68 µM.
As to `COc1ccc2cc(C(=O)/C=C/c3ccccc3O)c(=O)oc2c1` [ChC2, (E)-3-(3-(2-Hydroxyphenyl)acryloyl)-7-methoxy-2H-chromen-2-one], the IC50 at rMAO-A and against rMAO-B was greater than 10 µM in each case. For the same compound, on rMAO-B, the “rMAO-B inhibitory activity in vitro (in words)” value is listed as “loss of the inhibitory activity; also recorded: does not show in vitro activity”.
In the case of `COc1ccc2cc(C(=O)/C=C/c3ccc(O)c(OC)c3)c(=O)oc2c1` [ChC10], the 50% inhibitory concentration (IC50) against rMAO-A was greater than 10 µM. On rMAO-B, the “rMAO-B inhibitory activity in vitro (in words)” value is “loss of the inhibitory activity” and the IC50 was greater than 10 µM.
As for `COc1ccc2cc(C(=O)/C=C/c3cc(Br)c(OC)c(Br)c3)c(=O)oc2c1` [ChC12, (E)-3-(3-(3,5-dibromo-4-methoxyphenyl)acryloyl)-7-methoxy-2H-chromen-2-one], the IC50 against rMAO-A and on rMAO-B was greater than 10 µM throughout.
Take `COc1cccc(/C=C/C(=O)c2cc3ccc(OC)cc3oc2=O)c1` [ChC5, (E)-7-methoxy-3-(3-(3-methoxyphenyl)acryloyl)-2H-chromen-2-one]: the IC50 against rMAO-A was greater than 10 µM; against rMAO-B, 9.63 ± 0.9 µM. Moreover, the “Fold lower IMAO activity than ChC4” value on rMAO-B (rMAO-B, relative to ChC4) is “approximately 12 fold”.
Take `COc1ccc2cc(C(=O)/C=C/c3ccccc3OC)c(=O)oc2c1` [ChC3, (E)-7-methoxy-3-(3-(2-methoxyphenyl)acryloyl)-2H-chromen-2-one]: the 50% inhibitory concentration (IC50) on rMAO-A and at rMAO-B was greater than 10 µM in each case.
For the compound `COc1ccc(OC)c(/C=C/C(=O)c2cc3ccc(OC)cc3oc2=O)c1` [ChC8, (E)-3-(3-(2,5-dimethoxyphenyl)acryloyl)-7-methoxy-2H-chromen-2-one], the IC50 at rMAO-A and against rMAO-B was greater than 10 µM in each case.
Turning to `COc1ccc2cc(C(=O)C=Cc3ccccc3)c(=O)oc2c1` [ChC1, 3-Cinnamoyl-7-methoxy-2H-chromen-2-one], the IC50 on rMAO-A and on rMAO-B was greater than 10 µM each time.
`COc1ccc(/C=C/C(=O)c2cc3ccc(OC)cc3oc2=O)cc1` [ChC6, (E)-7-methoxy-3-(3-(4-methoxyphenyl)acryloyl)-2H-chromen-2-one]: the IC50 is greater than 10 µM at rMAO-A and 6.96 ± 0.07 µM on rMAO-B.
On the same counts, the results for `COc1ccc2cc(C(=O)/C=C/c3ccc(N(C)C)cc3)c(=O)oc2c1` [ChC13, (E)-3-(3-(4-(dimethylamino)phenyl)acryloyl)-7-methoxy-2H-chromen-2-one] are greater than 10 µM and greater than 10 µM.
On to `COc1ccc2cc(C(=O)/C=C/c3ccc(SC)cc3)c(=O)oc2c1` [ChC11], for which the results for the half-inhibitory concentration (IC50) against rMAO-A and at rMAO-B were greater than 10 µM and 5.88 ± 0.57 µM, respectively.

Source of the values: article PMC8122463, “Coumarin-Chalcone Hybrids as Inhibitors of MAO-B: Biological Activity and In Silico Studies” (Molecules, 2021).
